Assay results as given in paper PMC6120666 (The EMBO Journal, 2018).

What was measured:
[1] = system: RIPK2 ubiquitination in U2OS/NOD2 and THP-1 cells; experiment: Purification of Ub-conjugates (TUBE pulldown), RIPK2 ubiquitination; type: cell-based, human; conditions: U2OS/NOD2 or THP-1 cells, L18-MDP 200 ng/ml, 1 h
Experimental: For co‐immunoprecipitation of HA‐XIAP with RIPK2, transfected and treated cells were lysed in TBS buffer containing 0.5% NP‐40, cOmplete and PhosSTOP inhibitors (Roche) and the lysate was cleared by centrifugation. The lysates were incubated with anti‐HA‐agarose overnight, washed 3× with lysis buffer, and analyzed by immunoblotting. For GST pulldown experiments, U2OS/NOD2 cells were lysed in TBS lysis buffer containing 0.5% NP‐40, cOmplete and PhosSTOP inhibitors (Roche). Cleared lysates were pretreated with kinase inhibitors or DMSO and incubated with GST‐XIAP‐BIR2 bound to Glutathione Sepharose at 4°C overnight. Bound material was washed 3× with lysis buffer or PBS, eluted with 15 mM Glutathione in PBS, and analyzed by immunoblotting. […] The bound material was eluted and analyzed as described above. […]
PBS, eluted with 15 mM Glutathione in PBS and analyzed by immunoblotting. […]

[2] = biological target: T1, recombinant RIPK2 kinase (Homo sapiens, UniProt O43353); experiment: RIPK2 ADPGlo in vitro kinase assay; type: biochemical; conditions: average ± SD of at least three titrations, read-out: IC50, In vitro kinase, RIPK2 ADPGIo
T1 construct: made in house
Text: The BIR2 domains of XIAP and cIAP1 were cloned into the pGEX‐6P1 vector and were expressed in E. coli (BL21) cells as a fusion protein with N‐terminal 6xHis (XIAP BIR2 only) and GST tags. Protein expression was induced with IPTG, and cells were lysed using BugBuster protein extraction reagent (#70921, Merck Millipore) according to manufacturer's instructions. Proteins were purified with the FPLC protein purification system ÄKTA PrimePlus (GE Healthcare Life Sciences) using HisTrap FF column purification followed by gel filtration (HiLoad 26/600 Superdex 75 pg (GE Healthcare Life Sciences)). Collected fractions were stored at −80°C and used for probing of peptide array membranes. Expression and purification of recombinant RIPK1‐3 was performed as previously described (Canning et al, 2015; Najjar et al, 2015). RIPK1‐3 ADPGlo kinase assays using 20 ng/well protein were performed for 2 h at room temperature also as previously described (Canning et al, 2015; Najjar et al, 2015).

[3] = biological target: T2, XIAP BIR2 - RIPK2 interaction (Homo sapiens, UniProt O43353); experiment: GST-BIR2-XIAP pulldown of RIPK2; type: binding; conditions: for pulldown of RIPK2 by GST-BIR2-XIAP from cell lysates: U2OS/NOD2 lysates, inhibitors at 100-fold IC50 of RIPK2 kinase activity; for GST-BIR2-XIAP binding to recombinant RIPK2 kinase domain: recombinant human RIPK2 KD (dephosphorylated), same inhibitor concentrations
T2 construct: U2OS/NOD2 cells were lysed in TBS lysis buffer; endogenous in cells; host or cells: U2OS/NOD2 cell lysate (RIPK2); E. coli BL21 (GST-BIR2-XIAP)
Experimental: For co‐immunoprecipitation of HA‐XIAP with RIPK2, transfected and treated cells were lysed in TBS buffer containing 0.5% NP‐40, cOmplete and PhosSTOP inhibitors (Roche) and the lysate was cleared by centrifugation. The lysates were incubated with anti‐HA‐agarose overnight, washed 3× with lysis buffer, and analyzed by immunoblotting. For GST pulldown experiments, U2OS/NOD2 cells were lysed in TBS lysis buffer containing 0.5% NP‐40, cOmplete and PhosSTOP inhibitors (Roche). Cleared lysates were pretreated with kinase inhibitors or DMSO and incubated with GST‐XIAP‐BIR2 bound to Glutathione Sepharose at 4°C overnight. Bound material was washed 3× with lysis buffer or PBS, eluted with 15 mM Glutathione in PBS, and analyzed by immunoblotting. […] The bound material was eluted and analyzed as described above.
For coimmunoprecipitation of HA-XIAP with RIPK2, transfected and treated cells were lysed in TBS buffer containing 0.5% NP-40, cOmplete and PhosSTOP inhibitors (Roche) and the lysate was cleared by centrifugation. The lysates were incubated with anti-HA-agarose overnight, washed 3x with lysis buffer and analyzed by immunoblotting. For GST pull-down experiments, U2OS/NOD2 were lysed in TBS lysis buffer containing 0.5% NP-40, cOmplete and PhosSTOP inhibitors (Roche).
Cleared lysates were pretreated with kinase inhibitors or DMSO and incubated with GST-XIAP-BIR2 bound to Glutathione Sepharose at 4 °C overnight. Bound material was washed 3x with lysis buffer or PBS, eluted with 15 mM Glutathione in PBS and analyzed by immunoblotting. In pull-down […]
inhibitors or DMSO control in PBS were added together with RIPK2 kinase domain to GST-XIAP-BIR2 bound to Glutathione Sepharose. The bound material was eluted and analyzed as described above. […]

T1 sequence (O43353 whole entry): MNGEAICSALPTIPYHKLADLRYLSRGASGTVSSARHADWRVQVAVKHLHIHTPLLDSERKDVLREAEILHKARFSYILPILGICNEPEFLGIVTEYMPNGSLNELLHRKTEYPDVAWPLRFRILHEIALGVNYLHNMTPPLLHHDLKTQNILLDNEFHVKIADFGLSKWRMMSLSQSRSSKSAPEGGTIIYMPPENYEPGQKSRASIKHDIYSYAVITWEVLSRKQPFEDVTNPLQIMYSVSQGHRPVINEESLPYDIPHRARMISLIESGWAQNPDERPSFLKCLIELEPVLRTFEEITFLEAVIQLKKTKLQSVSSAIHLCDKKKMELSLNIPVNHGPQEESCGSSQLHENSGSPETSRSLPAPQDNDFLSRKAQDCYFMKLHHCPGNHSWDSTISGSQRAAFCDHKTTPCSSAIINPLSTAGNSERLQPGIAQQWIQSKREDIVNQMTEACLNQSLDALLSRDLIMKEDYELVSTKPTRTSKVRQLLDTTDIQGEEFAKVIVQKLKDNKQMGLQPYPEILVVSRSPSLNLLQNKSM

Row | IC50 [2] [nM] | SMILES | RIPK2 ubiquitination after L18-MDP [1] | pulldown of RIPK2 by GST-BIR2-XIAP from cell lysates [3] | GST-BIR2-XIAP binding to recombinant RIPK2 kinase domain [3]
1 | 53.5 ± 5.7 | CCCS(=O)(=O)Nc1cc(-c2cc(-c3ccc(N4CCNCC4)cc3)cnc2N)ccc1O [CSLP48] | little or no effect | little effect | 
2 | 37.3 ± 1.3 | Cc1ccc(-c2nn(C(C)(C)CNC(=O)c3ccncc3)c3ncnc(N)c23)cc1 [WEHI‐345, reference compound] |  |  | 

More lines, now with the values behind:

Row | SMILES | IC50 [2] [nM] | RIPK2 ubiquitination after L18-MDP [1] | pulldown of RIPK2 by GST-BIR2-XIAP from cell lysates [3] | GST-BIR2-XIAP binding to recombinant RIPK2 kinase domain [3]
3 | CCCS(=O)(=O)Nc1cc(-c2cc(-c3ccc(N4CCNCC4)cc3)cnc2N)cc(F)c1OC [CSLP37] | 16.3 ± 4.6 | inhibited RIPK2 ubiquitination | efficiently antagonized | still antagonized
4 | CCCS(=O)(=O)Nc1cc(-c2cc(-c3ccc(N4CCNCC4)cc3)cnc2N)cc(OC)c1OC [CSLP43] | 19.9 ± 0.8 | inhibited RIPK2 ubiquitination | efficiently antagonized | still antagonized
5 | COc1cc(-c2cc(-c3ccc(N4CCNCC4)cc3)cnc2N)cc(F)c1OC [CSLP55] | 39.1 ± 3.9 | little or no effect | little effect | 
